Reference: article PMC5011342, “A high throughput drug screening assay to identify compounds that promote oligodendrocyte differentiation using acutely dissociated and purified oligodendrocyte precursor cells” (BMC Research Notes, 2016)
Like-named read-outs stand apart in the source and are kept apart here.

Key:
[1] = system: acutely dissociated and purified rat OPCs; test: Acute OL differentiation assay (MBP expression/cell, immunofluorescent image quantification); format: cell-based; details: Rattus norvegicus
Method in brief: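 Oligodendrocyte precursor cells were enriched from P6-P7 Sprague–Dawley rat brains by immunopanning (RAN-2 and GalC depletion, O4 selection), plated at 5000 cells/well in serum-free, mitogen-free differentiation media on PDL/laminin 96-well view plates, centrifuged at 200×g, and pre-incubated 1–2 h before test compounds were added in quadruplicate. On DIV4, cells were fixed, stained for MBP and DAPI, imaged automatically, and MBP expression per cell was quantified.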

[2] = system: expanded OPCs; test: cells; details: for 0.1 µM (% DMSO) / 1 µM (% DMSO) / 10 µM (% DMSO): alamarBlue viability of expanded OPCs, relative to DMSO control; for 0.1 µM (% DMSO): compound at 0.1 µM; for 1 µM (% DMSO): compound at 1 µM; for 10 µM (% DMSO): compound at 10 µM; for viability at 0.1 µM / viability at 1 µM / viability at 10 µM: Rattus norvegicus, 72 h
Method in brief: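 Expanded OPCs seeded at 10,000 cells/well in differentiation media, then exposed to NCC library compounds at 10, 1 and 0.1 µM (quadruplicate, 0.1% DMSO) for three days. Viability read as alamarBlue fluorescence (560/590 nm) after 4 h at 37 °C; tunicamycin 5 ng/ml served as toxicity control.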

[3] = test compound at 2 uM, NCC library screen, sheet "All OLga data", relative to quetiapine, read-out: 2 uM (% Quet)
[4] = test compound at 10 uM, NCC library screen, sheet "All OLga data", relative to quetiapine, read-out: 10 uM (% Quet)
[5] = test compound at 2 uM, MBP expression relative to quetiapine, NCC library screen, sheet "All OLga data", read-out: 2 uM (% Quet)
[6] = test compound at 10 uM, MBP expression relative to quetiapine, NCC library screen, sheet "All OLga data", read-out: 10 uM (% Quet)
[7] = read-out: OL differentiation, 2 uM (% Quet)
[8] = read-out: OL differentiation, 10 uM (% Quet)
[9] = read-out: 0.1 µM (% DMSO), alamarBlue viability of expanded OPCs, compound at 0.1 µM, sheet All Tox data
[10] = read-out: 1 µM (% DMSO), alamarBlue viability of expanded OPCs, compound at 1 µM, sheet All Tox data
[11] = read-out: 10 µM (% DMSO), alamarBlue viability of expanded OPCs, compound at 10 µM, sheet All Tox data

Row | Structure (SMILES) | activation at 2 µM [1, 3] [%] | activation at 10 µM [1, 4] [%] | 0.1 µM (% DMSO) [2] [% DMSO] | 1 µM (% DMSO) [2] [% DMSO] | 10 µM (% DMSO) [2] [% DMSO] | activation at 2 µM [1, 5] [%] | further results
1 | CC(C)(C)NCC(O)COc1cccc2c1CC(O)C(O)C2 (stereo not shown) [Nadolol] | -14.4 | -35 | 102.3 | 95.3 | 94.0 |  | 
2 | C/C(=C\C(=O)OCCCCCCCCC(=O)O)C[C@@H]1OC[C@H](C[C@@H]2O[C@H]2[C@@H](C)[C@H](C)O)[C@@H](O)[C@H]1O [Mupirocin] |  |  | 103.2 | 108.1 | 104.3 | -2.9 | activation at 10 µM [1, 6]: 0.04%
3 | CN/C(=N/CCSCc1nc[nH]c1C)NC#N [Cimetidine] | 2.9 | -11.1 | 89.7 | 89.2 | 92.3 |  | 
4 | NS(=O)(=O)c1cc2c(cc1Cl)NCNS2(=O)=O [Hydrochlorothiazide] |  |  | 96.6 | 97.1 | 90.6 | -36 | activation at 10 µM [1, 6]: -46%
5 | Oc1ccc2c3c1O[C@H]1[C@@H](O)CC[C@@]4(O)[C@@H](C2)N(CC2CCC2)CC[C@]314 [Nalbufina] |  |  |  |  |  |  | activation at 2 µM [1, 7]: -0.9%; activation at 10 µM [1, 8]: 19.7%; viability at 0.1 µM ([2]; read-out: 0.1 µM (% DMSO)): 99%; viability at 1 µM ([2]; read-out: 1 µM (% DMSO)): 98.8%; viability at 10 µM ([2]; read-out: 10 µM (% DMSO)): 99.1%
6 | CCc1cc(C(N)=S)ccn1 [Ethionamide] | -7.9 | 7.6 | 89.6 | 86.5 | 79.6 |  | 
7 | c1ccc2c(c1)CCCC2C1=NCCN1 (stereo not shown) [Tyzine] | -6 | 0.3 | 181.2 | 186.3 | 187.5 |  | 
8 | CC(=O)OCC(CCn1cnc2cnc(N)nc21)COC(C)=O [Famciclovir] |  |  |  |  |  |  | activation at 2 µM ([1]; 2 uM test compound, relative to quetiapine, sheet "All OLga data", read-out: OL differentiation, 2 uM (% Quet)): -6.9%; activation at 10 µM ([1]; 10 uM test compound, relative to quetiapine, sheet "All OLga data", read-out: OL differentiation, 10 uM (% Quet)): -8.8%; viability at 0.1 µM [2, 9]: 97.6%; viability at 1 µM [2, 10]: 90.6%; viability at 10 µM [2, 11]: 106%
9 | O=c1c(-c2ccccc2)c1-c1ccccc1 [Diphenylcyclopropenone] |  |  |  |  |  |  | activation at 0.4 µM ([1]; 0.4 uM test compound, relative to quetiapine, sheet "All OLga data", read-out: OL differentiation, 0.4 uM (% Quet)): 8.6%; viability at 0.1 µM [2, 9]: 73.9%; viability at 1 µM [2, 10]: 65%; viability at 10 µM [2, 11]: 11.7%
10 | CN(C)CCCN1c2ccccc2Sc2ccc(Cl)cc21 [Chlorpromazine] |  |  |  |  |  |  | activation at 0.08 µM ([1]; test compound at 0.08 uM, NCC library screen, sheet "All OLga data", relative to quetiapine, read-out: 0.08 uM (% Quet)): 7.4%; activation at 0.4 µM ([1]; test compound at 0.4 uM, NCC library screen, sheet "All OLga data", relative to quetiapine, read-out: 0.4 uM (% Quet)): -44.8%; viability at 0.1 µM ([2]; read-out: 0.1 µM (% DMSO), alamarBlue viability, NCC library compound at 0.1 µM, sheet "All Tox data"): 67.2%; viability at 1 µM ([2]; read-out: 1 µM (% DMSO), alamarBlue viability, NCC library compound at 1 µM, sheet "All Tox data"): 38.2%; viability at 10 µM ([2]; read-out: 10 µM (% DMSO), alamarBlue viability, NCC library compound at 10 µM, sheet "All Tox data"): 10.5%
11 | CN1CCN(C2=Nc3cc(Cl)ccc3Nc3ccccc32)CC1 [Clozapine] |  |  | 78.7 | 61.3 | 24.6 | -39.3 | activation at 0.4 µM ([1]; test compound at 0.4 uM, MBP expression relative to quetiapine, NCC library screen, sheet "All OLga data", read-out: 0.4 uM (% Quet)): -5.6%
12 | Nc1nc2ccc(Cl)cc2c2nc(-c3ccco3)nn12 [CGS 15943] |  |  |  |  |  |  | activation at 2 µM [1, 7]: -24.4%; activation at 10 µM [1, 8]: -126%; viability at 0.1 µM ([2]; read-out: 0.1 µM (% DMSO)): 81.2%; viability at 1 µM ([2]; read-out: 1 µM (% DMSO)): 94.8%; viability at 10 µM ([2]; read-out: 10 µM (% DMSO)): 112%
13 | CC(C)(C(=O)c1cccnc1)c1cccnc1 [Metyrapone] |  |  | 90.5 | 94.0 | 93.4 | 9.9 | activation at 10 µM [1, 6]: -15%
